Assay results: patent US20140088034A1, “NITRIC OXIDE/cGMP PATHWAY INHIBITION OF VLA-4 RELATED CELL ADHESION” (STC.UNM, priority 2011, published 2014)
Residues, ends and D or L forms follow the SMILES beside them.

Columns and labels:
[1] = system: VLA-4/VCAM-1 dependent cell adhesion; assay: Real-time cell aggregation between U937 FPR (ΔST) and VCAM-1-transfected B78H1 cells; assay type: cell-based, human; details: U937 FPR ΔST + B78H1/VCAM-1; fMLFF 100 nM; DEA-NONOate 250 μM; LDV block 2 μM 6 min after mixing
Description: Real-time aggregation experiments were conducted as described under “Methods”, infra. U937/AST FPR stably transfected cells, which constitutively express VLA-4, were labeled with red fluorescent dye, and B78H1/VCAM-1 transfectants were stained with green fluorescent dye. […] Next, cells were mixed and real-time cell aggregation (red and green double positive events) was followed. To determine the level of VLA-4 dependent cell aggregation, 6 min after cell mixing, excess unlabelled VLA-4 specific ligand was added (arrow, LDV block, 2 μM).
Prior to the experiment, individual cell populations were stained with either of two fluorescent dyes (red and green). Next, the cell populations were mixed, and the appearance of double positive events, representing cellular aggregates, was followed in real-time by flow cytometry (see FIG. 1, 2, 3 in [55] for method details).
The cell suspension adhesion assay has been described previously. Briefly, U937/AST FPR stably transfected cells were labeled with red fluorescent PKH26GL dye, and B78H1/VCAM-1 transfectants were stained with green fluorescent PKH67GL dye (Sigma-Aldrich). Labeled cells were washed, resuspended in HEPES buffer supplemented with 0.1% HSA and stored on ice until used in assays. Control U937 cells were preincubated with the 1 μM LDV-containing small molecule for blocking adhesion. Prior to data acquisition, cells were warmed to 37° C. for 10 min separately and then mixed. During data acquisition, the samples were stirred with a 5×2-mm magnetic stir bar (Bel-Art Products, Pequannock, N.J.) at 300 rpm and kept at 37° C. For stimulation, cells were treated with appropriate GPCR ligands at saturating concentration (10 times or higher than Kd). In several experiments cells were treated sequentially with two different compounds. […] The percentage of aggregates was calculated as follows: % U937 cells in aggregates=number of aggregates/(number of aggregates+number of U937 singlets))×100. […]

VLA-4 [2] = assay: Real-time flow cytometric binding of LDV-FITC probe (VLA-4 affinity change) on GPCR-transfected U937 cells; assay type: cell-based, human; details: for effect on magnitude of LDV-FITC binding response, compound added prior to IL-8 activation: U937 CXCR2/IL-8RB; for effect on magnitude of LDV-FITC binding response, compound added prior to IL-8 activation / effect on magnitude of LDV-FITC binding response, compound added prior to SDF-1 activation: added at 0 time point, BAY 41-2272 100 μM; for effect on magnitude of LDV-FITC binding response, compound added prior to SDF-1 activation: U937 CXCR4; for reversibility of the decrease in LDV-FITC binding / effect on LDV-FITC binding, compound added after fMLFF activation: U937 non-desensitizing FPR mutant (ΔST), LDV-FITC 4 nM, fMLFF 100 nM; for effect on LDV-FITC binding, compound added after fMLFF activation: different concentrations
Description: Experiments were conducted as described under “Methods”, infra. A, LDV-FITC probe binding and dissociation on U937 cells stably transfected with the non-desensitizing mutant of FPR (ΔST) receptor plotted as mean channel fluorescence (MCF) versus time.
The experiment involved sequential addition of fluorescent LDV-FITC probe (4 nM, below saturation, added 2 min prior to addition of Gαi-coupled receptor ligand, fMLFF, 100 nM), and different concentrations of DEA-NONOate (nitric oxide donor) (arrows). Control cells were treated with vehicle. The MCF value corresponding to cell autofluorescence is indicated by the horizontal arrow. […] Curves are means of two independent determinations calculated on a point-by-point basis (n=2). B, LDV-FITC probe binding and dissociation on U937 cells stably transfected with wild type CXCR4 receptor plotted as mean channel fluorescence (MCF) versus time.
The experiment involved sequential addition of fluorescent LDV-FITC probe (4 nM), CXCL12/SDF-1 (12 nM), and DEA-NONOate (250 μM, nitric oxide donor) or vehicle (control) (arrows). Rapid and reversible binding of the probe reflects the VLA-4 affinity change. Curves are means of two independent determinations calculated on a point-by-point basis (n=2). SEM of mean, calculated on a point by point basis, indicated using error bars to show significance of the difference between treatment and control samples. C, LDV-FITC probe binding and dissociation on U937 cells stably transfected with wild type CXCR2/IL-8RB receptor plotted as mean channel fluorescence (MCF) versus time.
The experiment involved sequential addition of the fluorescent LDV-FITC probe (4 nM), CXCL8/IL-8 (20 nM), and DEA-NONOate (250 μM, nitric oxide donor) or vehicle (control) (arrows). This experiment is analogous to the one shown in panel B. One representative experiment of three experiments is shown. Curves are means of two independent determinations calculated on a point-by-point basis (n=2). D, LDV-FITC probe binding and dissociation on U937 cells stably transfected with wild type CXCR4 receptor plotted as mean channel fluorescence (MCF) versus time.
The experiment involved sequential addition of the DEA-NONOate (250 μM, nitric oxide donor) or vehicle (control) at the 0 time point, and the fluorescent LDV-FITC probe (4 nM), CXCL12/SDF-1 (12 nM) (arrows). Rapid and reversible binding of the probe reflects the VLA-4 affinity change. Excess unlabelled competitor LDV (1 μM) is added at the end of the experiment to determine the non-specific binding of the probe. Curves are means of two independent determinations calculated on a point-by-point basis (n=2). SEM, calculated on a point by point basis, is indicated using error bars to show the significance of the difference between treatment and control samples. E, LDV-FITC probe binding and dissociation on U937 cells stably transfected with wild type CXCR2/IL-8RB receptor plotted as mean channel fluorescence (MCF) versus time.
The experiment involved sequential addition of DEA-NONOate (250 μM, nitric oxide donor) or vehicle (control) at the 0 time point, and the fluorescent LDV-FITC probe (4 nM), CXCL8/IL-8 (20 nM) (arrows). Excess unlabelled competitor LDV (1 μM) added at the end of the experiment to determine the non-specific binding of the probe. This experiment is analogous to the one shown in panel D. One representative experiment of three experiments is shown. Curves are means of two independent determinations calculated on a point-by-point basis (n=2). […] Experiments shown in the different panels were performed using different instruments, and therefore MCF values are not identical. […]
LDV-FITC probe binding and dissociation on U937 cells stably transfected with the non-desensitizing mutant of FPR plotted as mean channel fluorescence (MCF) versus time. […]

VLA-4 [3] = biological target: VLA-4 (Homo sapiens, UniProt P05556+P13612); assay: Kinetic dissociation rate (koff) analysis of LDV-FITC probe on U937 cells with non-desensitizing FPR mutant; assay type: cell-based; details: U-937; U937 FPR ΔST; fMLFF 100 nM then BAY 41-2272 50 μM; LDV-FITC 25 nM, LDV block 2 μM; read-out: dissociation rate constant koff of LDV-FITC after fMLFF and BAY 41-2272
Description: The experiment involved sequential addition of BAY 41-2272 (100 μM, guanylyl cyclase activator) or vehicle (control) at the 0 time point, and the fluorescent LDV-FITC probe (4 nM), and CXCL8/IL-8 (20 nM) (arrows). Excess unlabelled competitor LDV (1 μM) added at the end of the experiment to determine the non-specific binding of the probe. This experiment is analogous to the one shown in panel B. One representative experiment of two experiments is shown. Curves are means of two independent determinations calculated on a point-by-point basis (n=2). […] D, Kinetic analysis of binding and dissociation of LDV-FITC probe on U937 cells stably transfected with the non-desensitizing mutant of FPR. Cells were sequentially treated with the LDV-FITC probe (25 nM, near saturation), the Gαi-coupled receptor ligand (fMLFF, 100 nM), BAY 41-2272 (guanylyl cyclase activator, 50 μM) (arrows). At time points indicated by arrows, cells were treated with excess unlabeled LDV containing small molecule (2 μM), and the dissociation of the fluorescent molecule was followed. Dissociation rate constants (koff) were obtained by fitting dissociation curves to a single exponential decay equation (as described in the text). Experiments shown in the different panels were performed using different instruments, and therefore MCF values are not identical. E, Dissociation rate values, obtained in experiments analogous to panel B, summarized as a bar graph showing mean and SEM (n=4). Colors of the dissociation curves in panel D and bars on panel E are matching. The difference between koffs for “resting” and “fMLFF activated”, and between “fMLFF activated” and “fMLFF activated and treated with BAY 41-2272” is statistically significant (P=0.0006<0.05) as calculated by one-way analysis of variance (ANOVA) using GraphPad Prism software. […]
Next, the regions of the ligand-binding curves corresponding to the dissociation of the LDV-FITC probe were fitted to a single exponential decay equation. […] The affinity state induced by guanylyl cyclase activator was quantitatively similar to the resting state before activation. […]

[4] = DEA-NONOate 250 μM, CXCL8/IL-8 20 nM
[5] = DEA-NONOate 250 μM, CXCL12/SDF-1 12 nM

VLA-4 (Homo sapiens, UniProt P05556+P13612), sequence (P13612 34-1032): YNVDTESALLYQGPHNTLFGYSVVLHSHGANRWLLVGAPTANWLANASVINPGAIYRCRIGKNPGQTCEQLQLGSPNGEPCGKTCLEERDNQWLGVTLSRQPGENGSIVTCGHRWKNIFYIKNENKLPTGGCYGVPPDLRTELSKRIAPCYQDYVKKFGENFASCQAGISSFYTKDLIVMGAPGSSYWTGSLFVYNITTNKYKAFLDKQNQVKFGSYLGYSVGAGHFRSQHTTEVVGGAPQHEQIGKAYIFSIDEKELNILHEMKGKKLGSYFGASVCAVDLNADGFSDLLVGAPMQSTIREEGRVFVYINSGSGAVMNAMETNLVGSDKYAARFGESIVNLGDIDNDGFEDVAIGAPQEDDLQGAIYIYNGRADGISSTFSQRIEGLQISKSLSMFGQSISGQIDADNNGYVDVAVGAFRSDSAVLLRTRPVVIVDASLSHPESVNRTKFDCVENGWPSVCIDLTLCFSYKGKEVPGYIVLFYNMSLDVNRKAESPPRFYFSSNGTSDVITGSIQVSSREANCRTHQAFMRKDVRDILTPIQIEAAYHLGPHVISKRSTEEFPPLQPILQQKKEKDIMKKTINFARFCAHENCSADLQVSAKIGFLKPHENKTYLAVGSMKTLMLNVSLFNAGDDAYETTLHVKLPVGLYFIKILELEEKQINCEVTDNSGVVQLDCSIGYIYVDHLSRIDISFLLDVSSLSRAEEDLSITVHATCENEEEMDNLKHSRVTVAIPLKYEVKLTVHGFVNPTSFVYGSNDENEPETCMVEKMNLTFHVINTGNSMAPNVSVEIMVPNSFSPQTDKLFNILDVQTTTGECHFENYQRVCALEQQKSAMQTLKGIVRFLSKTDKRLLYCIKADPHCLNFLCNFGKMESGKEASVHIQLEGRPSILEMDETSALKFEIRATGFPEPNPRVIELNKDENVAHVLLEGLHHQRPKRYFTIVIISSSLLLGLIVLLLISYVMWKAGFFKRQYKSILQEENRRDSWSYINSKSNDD
VLA-4 (Homo sapiens, UniProt P05556+P13612), sequence (P05556 21-798): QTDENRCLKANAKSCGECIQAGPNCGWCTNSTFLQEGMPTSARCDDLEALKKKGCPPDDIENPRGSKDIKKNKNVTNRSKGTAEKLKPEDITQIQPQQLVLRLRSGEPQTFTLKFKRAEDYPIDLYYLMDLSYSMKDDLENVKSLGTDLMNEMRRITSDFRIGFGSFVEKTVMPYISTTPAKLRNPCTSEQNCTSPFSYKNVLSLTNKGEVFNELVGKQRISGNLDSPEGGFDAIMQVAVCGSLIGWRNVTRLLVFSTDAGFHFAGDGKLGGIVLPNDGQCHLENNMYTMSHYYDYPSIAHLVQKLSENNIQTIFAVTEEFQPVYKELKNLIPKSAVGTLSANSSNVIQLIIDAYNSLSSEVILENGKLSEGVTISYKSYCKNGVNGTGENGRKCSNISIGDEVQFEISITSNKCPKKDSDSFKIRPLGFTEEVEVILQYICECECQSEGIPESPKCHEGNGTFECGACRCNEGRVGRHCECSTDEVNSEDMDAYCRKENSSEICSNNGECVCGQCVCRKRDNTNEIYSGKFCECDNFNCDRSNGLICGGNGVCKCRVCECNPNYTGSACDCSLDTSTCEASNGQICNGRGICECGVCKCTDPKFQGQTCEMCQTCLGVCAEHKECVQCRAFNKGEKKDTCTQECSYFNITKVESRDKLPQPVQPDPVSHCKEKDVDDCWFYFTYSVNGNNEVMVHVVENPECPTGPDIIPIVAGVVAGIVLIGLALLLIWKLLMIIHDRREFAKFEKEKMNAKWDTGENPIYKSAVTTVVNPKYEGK

Row | Structure (SMILES) | effect on VLA-4/VCAM-1 dependent cell aggregation (% U937 cells in aggregates) [1] | effect on magnitude of LDV-FITC binding response, compound added prior to IL-8 activation (VLA-4 [2]; [4]) | effect on magnitude of LDV-FITC binding response, compound added prior to SDF-1 activation (VLA-4 [2]; [5]) | reversibility of the decrease in LDV-FITC binding (VLA-4 [2]) | effect on LDV-FITC binding, compound added after fMLFF activation (VLA-4 [2]) | effect on LDV-FITC binding, compound added after CXCL8/IL-8 activation (VLA-4 [2]; U937 wild type CXCR2/IL-8RB, CXCL8/IL-8 20 nM, DEA-NONOate 250 μM) | effect on LDV-FITC binding, compound added after CXCL12/SDF-1 activation (VLA-4 [2]; U937 wild type CXCR4, CXCL12/SDF-1 12 nM, DEA-NONOate 250 μM) | koff (VLA-4 [3]) [s⁻¹]
1 | CSCC[C@H](NC=O)C(=O)N[C@@H](CC(C)C)C(=O)N[C@@H](Cc1ccccc1)C(=O)N[C@@H](Cc1ccccc1)C(=O)O [fMLFF, N-formyl-L-methionyl-L-leucyl-L-phenylalanyl-L-phenylalanine] (HELM PEPTIDE1{[O=C[*:2]].M.L.F.F}$$$$V2.0) | rapid increase in cell aggregation |  |  |  |  |  |  | 
2 | CCN(CC)/[N+]([O-])=N/O [DEA-NONOate] | abolished fMLFF-dependent cellular aggregation | significant decrease in the magnitude of the response | significant decrease in the magnitude of the response | not reversible | rapid and dose-dependent decrease in the binding of the VLA-4 specific ligand | faster and more pronounced signal decrease | faster and more pronounced signal decrease | 
3 | Nc1nc(-c2nn(Cc3ccccc3F)c3ncccc23)ncc1C1CC1 [BAY 41-2272, 3-(4-Amino-5-cyclopropylpyrimidin-2-yl)-1-(2-fluorobenzyl)-1H-pyrazolo[3,4-b]pyridine] |  | decrease in the magnitude of the response | decrease in the magnitude of the response | partially reversible | significant decrease in LDV-FITC binding |  |  | ~0.036
4 | CCCC(=O)Nc1nc2c(ncn2C2OC3COP(=O)([O-])OC3C2OC(=O)CCC)c(=O)[nH]1.[Na+] (stereo not shown) [dbcGMP, N^2,2′-O-Dibutyrylguanosine 3′,5′-cyclic monophosphate] |  |  |  | reversible | dose-dependent decrease in the binding of the probe |  |  | 
5 | Cc1ccccc1NC(=O)Nc1ccc(CC(=O)N[C@@H](CC(C)C)C(=O)N[C@@H](CC(=O)O)C(=O)N[C@H](C(=O)N2CCC[C@H]2C(=O)N[C@@H](C)C(=O)N[C@@H](C)C(=O)N[C@@H](CCCCN)C(=O)O)C(C)C)cc1 [LDV, 4-((N′-2-methylphenyl)ureido)-phenylacetyl-L-leucyl-L-aspartyl-L-valyl-L-prolyl-L-alanyl-L-alanyl-L-lysine] | rapid cellular disaggregation |  |  |  |  |  |  | 
